Laboratory results from patent US20250346588A1, “IMIDAZOPYRIDINE AND OXAZOLOPYRIDINE DERIVATIVES AND ANALOGS THEREOF, METHODS OF PREPARATION THEREOF, METHODS OF HIF-1/2A PATHWAY INHIBITION, AND INDUCTION OF FERROPTOSIS” (KUDA THERAPEUTICS, INC., priority 2022, published 2025).
pIC50: −log10 of the molar value.

Tested on: HIF-2α transcriptional activity
Assay: Hypoxia-responsive element-driven luciferase (HRE-Luc) screen
Type: cell-based, human
Settings: 786-0 ccRCC cells stably expressing HRE-Luc; 24 h treatment; range of IC50 values
Protocol: Screens for inhibitory activity of compounds described herein were performed using 786-0 ccRCC cells that stably express HRE-Luc: 5 copies of the hypoxia-responsive element (HRE) fused to the pGL3 luciferase reporter (Promega Corp, Madison WI). 786-0 cells are pVHL deficient and thus constitutively express HIF-2α independently of cellular oxygen tension. Since 786-0 cells lack HIF-1α, HRE-driven luciferase activity is primarily HIF-2α driven, and has been previously validated. Cells were maintained at log phase growth in […] (DMEM) with 10% FBS in a humidified incubator at 37° C. with 5% CO2. For screening assays, cells were seeded at a density of 4,000 cells in 50 μl of complete media/well in quadruplicate wells/point in a 96-well plate. After 24 h, 50 μl of a 2× concentration of test compound was added to each well. Compounds were diluted from a 5-10 mM stock in DMSO and final concentrations of DMSO in each well in controls and treated wells were kept constant at ≤0.6% DMSO. After 24 h treatment, luciferase activity was measured using the Steady-Glo Luciferase assay system (Promega Corp) according to the manufacturer's protocol. Cell viability was measured in quadruplicate parallel wells using resazurin as recommended by the manufacturer (R&D systems, Minneapolis, MN). Data for luciferase and resazurin were normalized to DMSO treated controls (defining 100%) and wells containing assay reagent but no cells (defining 0%) and graphed using the log inhibitor versus normalized response option in Graphpad Prism 9.3.1 software. Representative data determined using Steady-Glo luciferase and resazurin are shown in FIGS. 1A and 1B respectively, with error bars showing SD. Filled diamonds, empty squares and empty triangles indicate treatment with 3, 8 and 22 respectively with results for HRE-Luc shown in FIG. 1A.

| Structure (SMILES) | pIC50 |
| --- | --- |
| COc1cccc2nc(Nc3nnc(C4CCC(OC)CC4)o3)[nH]c12 (single isomer, unassigned) [Compound 75-isomer-2, N-(7-methoxy-1H-benzo[d]imidazol-2-yl)-5-(4-methoxycyclohexyl)-1,3,4-oxadiazol-2-amine] | 4.30 to 5.00 |
| COc1ccc(-c2nnc(Nc3nc4c(Cl)nccc4[nH]3)o2)cc1 [Compound 23, N-(4-chloro-1H-imidazo[4,5-c]74yridine-2-yl)-5-(4-methoxyphenyl)-1,3,4-oxadiazol-2-amine] | 4.30 to 5.00 |

Same assay, conditions: Homo sapiens, 786-0, 24 h, 786-0 ccRCC cells stably expressing HRE-Luc; 24 h treatment; range of IC50 values

| Structure (SMILES) | pIC50 |
| --- | --- |
| COc1cccc2nc(Nc3nnc(C4CCC(OC)CC4)o3)[nH]c12 (single isomer, unassigned) [Compound 75-isomer-1, N-(7-methoxy-1H-benzo[d]imidazol-2-yl)-5-(4-methoxycyclohexyl)-1,3,4-oxadiazol-2-amine] | > 5.00 |
| COc1ccc2[nH]c(Nc3nnc(-c4ccc(F)cc4)o3)nc2n1 [Compound 4, 5-(4-Fluorophenyl)-N-(5-methoxy-1H-imidazo[4,5-b]pyridin-2-yl)-1,3,4-oxadiazol-2-amine] | > 5.00 |
| Fc1ccc(-c2nnc(Nc3nc4cnc(Cl)cc4[nH]3)o2)cc1 [Compound 5, N-(6-Chloro-1H-imidazo[4,5-c]pyridin-2-yl)-5-(4-fluorophenyl)-1,3,4-oxadiazol-2-amine] | 4.30 to 5.00 |
| Fc1ccc(-c2nnc(Nc3nc4cnc(C(F)(F)F)cc4[nH]3)o2)cc1 [Compound 6, 5-(4-Fluorophenyl)-N-(6-(trifluoromethyl)-1H-imidazo[4,5-c]pyridin-2-yl)-1,3,4-oxadiazol-2-amine] | 4.30 to 5.00 |
| Cc1cncc2nc(Nc3nnc(-c4ccc(F)cc4)o3)[nH]c12 [Compound 7, 5-(4-Fluorophenyl)-N-(7-methyl-1H-imidazo[4,5-c]pyridin-2-yl)-1,3,4-oxadiazol-2-amine] | 4.30 to 5.00 |
| Fc1ccc(-c2nnc(Nc3nc4ncccc4o3)o2)cc1 [Compound 8, N-(5-(4-Fluorophenyl)-1,3,4-oxadiazol-2-yl)oxazolo[4,5-b]pyridin-2-amine] | < 5.00 |
| COc1ccc2nc(Nc3nnc(-c4ccc(F)cc4)o3)sc2n1 [Compound 9, 5-(4-Fluorophenyl)-N-(5-methoxythiazolo[5,4-b]pyridin-2-yl)-1,3,4-oxadiazol-2-amine] | 4.00 to 4.30 |
| Fc1ccc(-c2nnc(Nc3nc4cnc(N5CCOCC5)cc4[nH]3)o2)cc1 [Compound 10, 5-(4-Fluorophenyl)-N-(6-morpholino-1H-imidazo[4,5-c]pyridin-2-yl)-1,3,4-oxadiazol-2-amine] | 4.30 to 5.00 |
| Fc1ccc(-c2nnc(Nc3nc4cnc(Cl)nc4[nH]3)o2)cc1 [Compound 14, N-(2-Chloro-9H-purin-8-yl)-5-(4-fluorophenyl)-1,3,4-oxadiazol-2-amine] | 4.30 to 5.00 |
| Fc1ccc(-c2nnc(Nc3nc4ccnc(N5CCOCC5)c4[nH]3)o2)cc1 [Compound 17, 5-(4-Fluorophenyl)-N-(4-morpholino-3H-imidazo[4,5-c]pyridin-2-yl)-1,3,4-oxadiazol-2-amine] | 4.30 to 5.00 |
| Fc1ccc(-c2nnc(Nc3nc4cncc(N5CCOCC5)c4[nH]3)o2)cc1 [Compound 18, 5-(4-Fluorophenyl)-N-(7-morpholino-1H-imidazo[4,5-c]pyridin-2-yl)-1,3,4-oxadiazol-2-amine] | 4.30 to 5.00 |
| COc1cccc(-c2nccc3nc(Nc4nnc(-c5ccc(F)cc5)o4)[nH]c23)c1 [Compound 19, 5-(4-Fluorophenyl)-N-(4-(3-methoxyphenyl)-3H-imidazo[4,5-c]pyridin-2-yl)-1,3,4-oxadiazol-2-amine] | 4.00 to 4.30 |
| COc1nccc2[nH]c(Nc3nnc(-c4ccc(C(F)(F)F)cc4)o3)nc12 [Compound 20, N-(4-methoxy-1H-imidazo[4,5-c]pyridin-2-yl)-5-(4-(trifluoromethyl)phenyl)-1,3,4-oxadiazol-2-amine] | 4.30 to 5.00 |
| COc1nccc2[nH]c(Nc3nnc(-c4ccc(OC(F)(F)F)cc4)o3)nc12 [Compound 21, N-(4-methoxy-1H-imidazo[4,5-c]pyridin-2-yl)-5-(4-(trifluoromethoxy)phenyl)-1,3,4-oxadiazol-2-amine] | 4.30 to 5.00 |
| COc1ccc(-c2nnc(Nc3nc4c(OC)nccc4[nH]3)o2)cc1OC [Compound 26, N-(4-Methoxy-1H-imidazo[4,5-c]pyridin-2-yl)-5-(3,4-dimethoxyphenyl)-1,3,4-oxadiazol-2-amine] | > 5.00 |
| COc1nccc2[nH]c(Nc3nnc(-c4ccc5c(c4)OCO5)o3)nc12 [Compound 27, N-(4-Methoxy-1H-imidazo[4,5-c]pyridin-2-yl)-5-(benzo[d][1,3]dioxol-5-yl)-1,3,4-oxadiazol-2-amine] | > 5.00 |
| COc1nccc2[nH]c(Nc3nnc(-c4ccc(N(C)C)cc4)o3)nc12 [Compound 28, N-(4-Methoxy-1H-imidazo[4,5-c]pyridin-2-yl)-5-(4-(dimethylamino)phenyl)-1,3,4-oxadiazol-2-amine] | > 5.00 |
| COc1nccc2[nH]c(Nc3nnc(-c4ccc(C)cc4)o3)nc12 [Compound 29, N-(4-methoxy-1H-imidazo[4,5-c]pyridin-2-yl)-5-(p-tolyl)-1,3,4-oxadiazol-2-amine] | > 5.00 |
| COc1ccc(-c2nnc(Nc3nc4ncccc4o3)o2)cc1 [Compound 30, N-(5-(4-Methoxyphenyl)-1,3,4-oxadiazol-2-yl)oxazolo[4,5-b]pyridin-2-amine] | > 5.00 |
| Fc1ccc(-c2nnc(Nc3nc4ccnc(-c5ccc6c(c5)OCO6)c4[nH]3)o2)cc1 [Compound 31, N-(4-(Benzo[d][1,3]dioxol-5-yl)-3H-imidazo[4,5-c]pyridin-2-yl)-5-(4-fluorophenyl)-1,3,4-oxadiazol-2-amine] | 4.30 to 5.00 |
| COc1nccc2[nH]c(Nc3nnc(-c4ccc(C#N)cc4)o3)nc12 [Compound 32, 4-(5-((4-Methoxy-1H-imidazo[4,5-c]pyridin-2-yl)amino)-1,3,4-oxadiazol-2-yl) benzonitrile] | < 5.00 |
| COc1ccc(-c2nnc(Nc3nc4c(OC)nccc4[nH]3)o2)cc1F [Compound 33, 5-(3-Fluoro-4-methoxyphenyl)-N-(4-methoxy-1H-imidazo[4,5-c]pyridin-2-yl)-1,3,4-oxadiazol-2-amine] | < 5.00 |
| COc1ccc(-c2nnc(Nc3nc4c(OC)nccc4[nH]3)o2)cn1 [Compound 39, N-(4-Methoxy-1H-imidazo[4,5-c]pyridin-2-yl)-5-(6-methoxypyridin-3-yl)-1,3,4-oxadiazol-2-amine] | > 5.00 |
| COc1nccc2[nH]c(Nc3nnc(-c4ccc(OC5CC5)cc4)o3)nc12 [Compound 41, 5-(4-Cyclopropoxyphenyl)-N-(4-methoxy-1H-imidazo[4,5-c]pyridin-2-yl)-1,3,4-oxadiazol-2-amine] | > 5.00 |
| COc1nccc2[nH]c(Nc3nnc(-c4ccc(OC(C)C)cc4)o3)nc12 [Compound 42, 5-(4-Isopropoxyphenyl)-N-(4-methoxy-1H-imidazo[4,5-c]pyridin-2-yl)-1,3,4-oxadiazol-2-amine] | 4.30 to 5.00 |
| COc1ccc(-c2csc(Nc3nc4c(OC)nc(C)cc4[nH]3)n2)cc1C#N [Compound 53, 2-Methoxy-5-(2-((4-methoxy-6-methyl-1H-imidazo[4,5-c]pyridin-2-yl)amino)thiazol-4-yl)benzonitrile] | < 4.00 |
| COc1ccc(-c2nnc(Nc3nc4c(OC)nc(C)cc4[nH]3)o2)cc1OC [Compound 55, 5-(3,4-dimethoxyphenyl)-N-(4-methoxy-6-methyl-1H-imidazo[4,5-c]pyridin-2-yl)-1,3,4-oxadiazol-2-amine] | > 5.00 |
